Reference: US6881824B1, “Peptides suitable for use in antigen specific immunosuppressive therapy” (Akzo Nobel N.V., priority 1996, dated 2005)
Ends that are not written are not given here.

What was measured:
[1] = tested on: PBMC from RA patients and healthy controls carrying the DR4 (DRB1*0401) specificity; assay: Proliferative responses of blood mononuclear cells, RA patients and healthy donors taken together; assay type: cell-based, human; details: for Responses to the individual peptides (PBMC proliferation), identifying T-cell epitopes: any donor
Experimental: (§1) In order to identify T-cell epitopes within HC gp-39, 59 peptides of 16 AA in length, overlapping by 10 AA were tested for their capacity to induce a proliferative response in PBMC from RA patients and healthy controls carrying the DR4 (DRB1*0401) specificity (Table 1).
(§2) PBMC obtained from heparinized venous peripheral blood were isolated by standard centrifugation on a Ficoll-Paque gradient. Cells were cultured in four-fold at a concentration of 1,5×10^5 cells/well in medium supplemented with 10% heat-inactivated, autologous plasma, L-glutamine, 2-ME and antibiotics in flatbottomed microtiter plates. Cells were incubated in medium alone or in the presence of phytohaemagglutinin (PHA) (2:5 μg/ml) to assert cell viability, or in the presence of 10 or 100 μg/ml of the HC gp-39-derived peptides. In several cases, sets of 2 or 3 sequential peptides were tested due to limited PBMC numbers of individual donors. Cultures were incubated in a total volume of 210 μl for 7 days at […] in a humidified atmosphere of 5% CO2. Cultures were pulsed during the last 18 hours with 0.25 μCi ^3H-thymidine ([^3H]TdR). Cells were harvested on glassfiber filters and [^3H] TdR incorporation was measured by gas scintillation (Packard Matrix 96 βcounter). Only peptides inducing a proliferative response at both 10 and 100 μg/ml were considered to contain a T-cell epitope. Responses were defined positive if stimulation index values (SI, antigen-specific counts per 5 min (cp5 m)/background cp5 m) exceeded or equaled 2.
(§3) T-cell reactivity to HC gp-39-derived peptide as analyzed by measuring the PBMC proliferative response in DR4 (DRB1*0401)-positive RA patients and healthy donors. Proliferative responses were tested in autologous plasma. In Table IIIA and IIIB the results of 7 experiments are presented showing the responses of RA patients (Table IIIA) and the responses of healthy donors (Table IIIB) to 59 overlapping sequences derived from HC gp-39.

[2] = tested on: PBMC from healthy donors carrying the DR4 (DRB1*0401) specificity; assay: Peptide-induced proliferative responses of PBMC from healthy donors; assay type: cell-based, human; details: for Peptide-induced proliferative response of PBMC, HD 230: healthy donor 230, 0401, R; for Peptide-induced proliferative response of PBMC, HD 235: healthy donor 235, 0401, R; for Responses induced only in healthy donors: healthy donors 230, 235
Experimental: Peripheral blood samples from 5 healthy donors carrying the DR4(DRB1*0401) specificity were obtained with informed consent and included in this study as a control.
as §1, §2, §3

[3] = target: T1, DR4 (DRB1*0401) molecules (Homo sapiens, UniProt P01903+P01911, A100K/A169T/F76Y/I96L/K127E/L162R/M171V/N62H/P40V/Q125Y/R42H/S133A/S149N/S66Y/V115G/V209L/W38E); assay: Peptide HLA-DR binding assay (semi-quantitative competition binding); details: for IC50: competition with biotinylated marker peptide HA 309 Y→F, pH5.0, 44 hr RT
T1 construct: molecules were purified from the homozygous EBV-transformed human B lymphoblastoid cell lines Huly138IC2 and BM92 using the mAb; endogenous in cells
Experimental: DR4 (DRB1*0401) and DR4 (DRB1*0404) molecules were purified from the homozygous EBV-transformed human B lymphoblastoid cell lines Huly138IC2 and BM92 using the mAb t243, directed against a monomorphic determinant on the DR-complex (Lampson, L. A and R. Levy (1980), J. Immunol. 125:293 299).
The peptide binding studies were performed using a semi-quantitative competition binding assay (Joosten et al 1994, Int. Immunol. 6, 751). Briefly, purified HLA-DR molecules (30 nM DR4(DRB1*0401) or 15 nM DR4 (DRB1*0404) were incubated at pH5.0 with 50 nM biotinylated marker peptide (HA 309y→F) and a concentration range of competitor peptide in a final volume of 25 μl binding buffer (PBS containing 0.01% […], 0.05% NP-40, 5% DMSO, 1 mM AEBSF, 1 mM N-ethyl maleimide, 8 mM EDTA and 10 μm pepstatin A). After 44 hr of incubation at RT, HLA DR bound marker peptide was separated from free marker peptide using a 96 well vacuum dotblot apparatus (Hybri. dot, BRL) and a nitrocellulose membrane (Hybond ECL, Amersham, UK). The nitrocellulose filters were blocked with 0.5% DNA blocking reagent (Boehringer) in 0.1 M maleic acid, 150 mM NaCl, pH7.5.
After 0.5-1 hr, the filters were washed in PBS, 0.05% Tween 20 (Sigma) and incubated with Strepcavidin-HRPO (Southern Biotechnology) in a 1:10.000 dilution. Biotinylated peptides were detected by enhanced chemiluminescence using a Western Blot ECL kit (Amersham). Exposure of the preflashed films (Hyperfilm-ECL, Amersham) was for 10 min. The spots were analysed by scanning the films and using Image Quant/Excel software for analysis.
The affinity of a given peptide for binding DRB1*0401-encoded molecules was related to competition with the marker peptide. This relative binding affinity was defined as the peptide concentration at which the signal was reduced to 50% (IC50).

[4] = tested on: PBMC from RA patients carrying the DR4 (DRB1*0401) specificity; assay: Peptide-induced proliferative responses of PBMC from RA patients; assay type: cell-based, human; details: for Peptide-induced proliferative response of PBMC, RA 272: RA patient 272, 0401, R; for Peptide-induced proliferative response of PBMC, RA 259: RA patient 259, 0401, R; for Peptide-induced proliferative response of PBMC, RA 276: RA patient 276, 0401, R; for Peptide-induced proliferative response of PBMC, RA 286: RA patient 286, 0401, R
Experimental: This study included 7 DR4(DRB1*0401)-positive patients diagnosed as suffering from RA according to the ARA criteria (Arnett et al., (1988), Arthritis Rheum. 31, 315). Peripheral blood samples were obtained with informed consent. There were five women and two men aged 46-79 years. Their duration of disease ranged from over 10 to over 30 years. Three out of 7 patients had at least 3 swollen joints. […] All patients were on medication: Four patients were treated with prednisone, three patients received anti-rheumatic agents and 4 patients were treated with NSAID's as well.
as §1, §2, §3

[5] = 100 and 10 microgram/ml, 7 days, 3H-thymidine incorporation

Row | Sequence | Responses to the individual peptides (PBMC proliferation), identifying T-cell epitopes [1] | Peptide-induced proliferative response of PBMC, HD 155 ([2]; healthy donor 155, 0401, R, 100 and 10 microgram/ml, 7 days, 3H-thymidine incorporation) | Presence of T-cell epitopes confirmed by PBMC of healthy donor 230 [2] | Peptide-induced proliferative response of PBMC, HD 230 [2, 5] | Peptide-induced proliferative response of PBMC, HD 235 [2, 5] | Relative affinity of binding to DR4 (DRB1*0401), in words [3] | IC50 ([3]; Table IIIA) [nM] | IC50 ([3]; Table IIIB) [nM] | Peptide-induced proliferative response of PBMC, RA 272 [4, 5] | Response of PBMC from RA patient 272 to individual peptides, in words [4] | Responses induced only in healthy donors [2] | Peptide-induced proliferative response of PBMC, RA 259 [4, 5] | Peptides or sets of peptides most frequently recognized ([1]; overall, all donors) | Peptide-induced proliferative response of PBMC, RA 262 ([4]; RA patient 262, 0401, R, 100 and 10 microgram/ml, 7 days, 3H-thymidine incorporation) | Peptide-induced proliferative response of PBMC, RA 276 [4, 5] | Peptide-induced proliferative response of PBMC, RA 286 [4, 5] | Peptide-induced proliferative response of PBMC, RA 191 ([4]; RA patient 191, 0401, R, 100 and 10 microgram/ml, 7 days, 3H-thymidine incorporation) | Responses to peptides observed in RA patients only ([4]; compared with healthy donors)
1 | DYAVGYMLRLGAPASK [compound 37, DYAVGYMLRLGAPASK] | observed in one or more donors | pos (positive responses to both 100 and 10 microgram/ml of peptide or sets of peptides (SI>2 were regarded positive)) | confirmed the presence of T-cell epitopes | pos (positive responses to both 100 and 10 microgram/ml of peptide or sets of peptides (SI>2 were regarded positive)) | pos (positive responses to both 100 and 10 microgram/ml of peptide or sets of peptides (SI>2 were regarded positive)) | relatively high affinity | < 1000 | < 1000 | pos (positive responses to both 100 and 10 microgram/ml of peptide or sets of peptides (SI≧2 were regarded positive)) | appeared to respond | – | – | – | – | – | – | – | –
2 | GRSFTLASSETGVGAP [compound 41, GRSFTLASSETGVGAP] | observed in one or more donors | – | – | – | pos (positive responses to both 100 and 10 microgram/ml of peptide or sets of peptides (SI>2 were regarded positive)) | relatively high affinity | – | < 1000 | – | – | induced only responses in healthy donors | – | – | – | – | – | – | –
3 | LDRFLCTHIIYSFANI [compound 5, LDRFLCTHIIYSFANI] | observed in one or more donors | – | confirmed the presence of T-cell epitopes | pos (positive responses to both 100 and 10 microgram/ml of peptide or sets of peptides (SI>2 were regarded positive)) | – | relatively high affinity | < 1000 | < 1000 | pos (positive responses to both 100 and 10 microgram/ml of peptide or sets of peptides (SI≧2 were regarded positive)) | appeared to respond | – | pos (positive responses to both 100 and 10 microgram/ml of peptide or sets of peptides (SI≧2 were regarded positive)) | – | – | – | – | – | –
4 | PNLKTLLSVGGWNFGS [compound 12, PNLKTLLSVGGWNFGS] | observed in one or more donors | – | – | pos (positive responses to both 100 and 10 microgram/ml of peptide or sets of peptides (SI>2 were regarded positive)) | – | relatively high affinity | – | < 1000 | – | – | induced only responses in healthy donors | – | – | – | – | – | – | –
5 | QHLDFISIMTYDFHGA [peptide 30, QHLDFISIMTYDFHGA] | observed in one or more donors | – | confirmed the presence of T-cell epitopes | pos (positive responses to both 100 and 10 microgram/ml of peptide or sets of peptides (SI>2 were regarded positive)) | – | relatively high affinity | < 1000 | < 1000 | pos (positive responses to both 100 and 10 microgram/ml of peptide or sets of peptides (SI≧2 were regarded positive)) | appeared to respond | – | – | most frequently recognized | pos (positive responses to both 100 and 10 microgram/ml of peptide or sets of peptides (SI≧2 were regarded positive)) | pos (positive responses to both 100 and 10 microgram/ml of peptide or sets of peptides (SI≧2 were regarded positive)) | pos (positive responses to both 100 and 10 microgram/ml of peptide or sets of peptides (SI≧2 were regarded positive)) | – | –
6 | YTSWSQYREGDGSCFP [peptide 2, YTSWSQYREGDGSCFP] | observed in one or more donors | – | – | – | – | intermediate relative affinity | 10000 to 100000 | – | pos (positive responses to both 100 and 10 microgram/ml of peptide or sets of peptides (SI≧2 were regarded positive)) | appeared to respond | – | pos (positive responses to both 100 and 10 microgram/ml of peptide or sets of peptides (SI≧2 were regarded positive)) | – | – | pos (positive responses to both 100 and 10 microgram/ml of peptide or sets of peptides (SI≧2 were regarded positive)) | pos (positive responses to both 100 and 10 microgram/ml of peptide or sets of peptides (SI≧2 were regarded positive)) | pos (positive responses to both 100 and 10 microgram/ml of peptide or sets of peptides (SI≧2 were regarded positive)) | observed in RA patients only
